Results: patent US9566262B2, “Itch suppression by fucoxanthin” (THE RITSUMEIKAN TRUST, priority 2015, dated 2017)
“Also recorded” adds a separate entry of the source.

Key:
Cebpα = experiment: Real time PCR gene expression in bone marrow cells cultured with IL-3; assay type: cell-based, mice; conditions: vs DMSO
Description: (§1) Bone marrow cells obtained from 8-week-old female mice was cultured in a medium for conditioning containing IL-3. On the day the bone marrow cells were obtained (day 0), 10 μM fucoxanthin or dimethyl sulfoxide (DMSO) as a control was added to the culture solution and the cells were cultured for 1, 2, 3 or 4 weeks. Quantitative real time PCR was performed according to the method described in Kosaka et al. (supra). Five different cDNA pool dilutions were used for the experiments. The expression levels of PCR products were normalized to that of a housekeeping gene, GAPDH or β-actin, and the measured values were compared with cycle threshold value (Ct value). The primers used are shown below.
(§2) The housekeeping genes GAPDH and β-actin were used for normalization as internal standards. All measurements were performed 4 times.

PU.1 = experiment: as above; assay type: cell-based, mice; conditions: 10 μM added day 0, cultured 1-4 weeks, vs DMSO
Description: as §1, §2

[1] = system: histidine decarboxylase (Hdc); experiment: as above; assay type: cell-based, mice; conditions: 10 μM added day 0, cultured 1-4 weeks, vs DMSO
Description: as §1, §2

FcεRIα = experiment: as above; assay type: cell-based, mice; conditions: 10 μM added day 0, cultured 1-4 weeks, vs DMSO
Description: as §1, §2

GATA-2 = experiment: as above; assay type: cell-based, mice; conditions: 10 μM added day 0, cultured 1-4 weeks, vs DMSO
Description: as §1, §2

GATA-1 = experiment: as above; assay type: cell-based, mice; conditions: 10 μM added day 0, cultured 1-4 weeks, vs DMSO
Description: as §1, §2

Mitf1 = experiment: as above; assay type: cell-based, mice; conditions: 10 μM added day 0, cultured 1-4 weeks, vs DMSO
Description: as §1, §2

NC/Nga mice [2] = experiment: Serum IgE content by ELISA in NC/Nga mice; assay type: in vivo; conditions: topical application for 5 weeks, PiCl-sensitized, vs Vaseline
Description: NC/Nga mice (5 weeks old, female) were purchased from Japan SLC, Inc. […] On day 12, day 19, day 26 and day 33 after starting application of Vaseline or fucoxanthin, 0.8% picryl chloride (PiCl) was further applied to the back skin of the mice. The behaviors of the mice were observed by video monitoring. On day 34 after starting application of Vaseline or fucoxanthin, bromodeoxyuridine (BrdU, Nacalai Tesque) (0.[…] weight) was intraperitoneally administered to the mice. At 5 weeks after starting application of Vaseline or fucoxanthin, the time each mouse spent for scratching behavior in 10 minutes was measured by video monitoring. Then, the mice were sacrificed and the auricular lymph node, blood and skin were obtained. Serum IgE content was determined by enzyme-linked immunosorbent assay (ELISA) using Mouse IgE Assay Kit (Morinaga Institute of Biological Science, Inc.). […] BrdU uptake was determined by ELISA using Cell Proliferation ELISA, BrdU (Colorimetric) (Roche Diagnostics K.K.). […] Also, serum IgE levels and swelling of the auricular lymph nodes of the mice were determined in the same manner as described in Example 2.

NC/Nga mice [3] = experiment: Toluidine blue staining of skin specimens, number of TB-positive (mast) cells; assay type: in vivo; conditions: 0.1% fucoxanthin in Vaseline, 5 weeks, vs Vaseline-applied mice
Description: In the same manner as described in Example 2, Vaseline or fucoxanthin and PiCl were applied to NC/Nga mice. At 5 weeks after starting application of Vaseline or fucoxanthin, the mice were sacrificed, the mice skins were fixed with 4% paraformaldehyde and embedded in paraffin. The skin specimen was stained with toluidine blue (TB) (pH=4.1). Imaging of the stained specimen was performed by Virtual Slide System (Olympus).

NC/Nga mice [4] = experiment: Transdermal water loss (TEWL) in the skin of NC/Nga mice; assay type: in vivo; conditions: topical application plus PiCl, at 5 weeks, vs Vaseline
Description: Transdermal water loss (TEWL) in the skin of the mice treated with fucoxanthin was also measured and compared with that in the skin of the mice treated with tacrolimus.

bone marrow cells = experiment: Formation of bone marrow-derived mast cells (BMMCs) from bone marrow cells; assay type: cell-based, mice; conditions: 0.1 μM, 1 μM or 10 μM, vs DMSO
Description: Bone marrow cells were obtained from 8-week-old female mice and cultured in a medium for conditioning that contained WEHI-3 cells (National Institute of Biomedical Innovation, Health and Nutrition). The culture was performed according to the method described in Yamashita, U. et al. (2005) “Strain difference of murine bone marrow-derived mast cell functions.” J. Leukoc. Biol. 78(3): 605-611. The bone marrow cells were treated with 0.1 μM, 1 μM or 10 μM fucxanthin, or dimethyl sulfoxide (DMSO) as a control. The number of BMMCs containing 10 fields (100 μm×100 μm) per well was counted (FIG. 2C).

CC(=O)O[C@H]1CC(C)(C)C(=C=C/C(C)=C/C=C/C(C)=C/C=C/C=C(C)/C=C/C=C(\C)C(=O)C[C@@]23O[C@]2(C)C[C@@H](O)CC3(C)C)[C@](C)(O)C1 [fucoxanthin]
expression of Cebpα, 3 to 4 weeks (Cebpα; 10 μM added day 0, 3 to 4 weeks after starting culture): remarkably upregulated
expression of Cebpα, first 2 weeks (Cebpα; 10 μM added day 0, first 2 weeks of culture): downregulated
expression of PU.1 (PU.1): did not change significantly
expression of Hdc [1]: downregulated
expression of FcεRIα (FcεRIα): downregulated
expression of GATA-2 (GATA-2): downregulated
expression of GATA-1 (GATA-1): downregulated
expression of Mitf1 (Mitf1): did not change significantly
serum IgE level (NC/Nga mice [2]): neither ear swelling (FIG. 9A) nor serum IgE level (FIG. 9B) were affected; also recorded: did not vary
number of toluidine blue (TB)-positive cells in skin (NC/Nga mice [3]): remarkably lower
transdermal water loss (TEWL) (NC/Nga mice [4]): remarkably inhibited moisture evaporation
BMMC formation (number of BMMCs) (bone marrow cells): suppressed BMMC formation in a dose-dependent manner
